Results published in patent US20250302816A1, “DISRUPTION OF EPITHELIAL BARRIERS FOR MOLECULAR DELIVERY ENHANCEMENT OR EXTRACTION OF EXTRACELLULAR FLUIDS” (The University of Nottingham, priority 2022, published 2025).

Key:
Type in all cases: cell-based, human
Calu-3 cell layers = conditions: 3OC12-HSL 200 μM
Description: FIG. 2: Macromolecular therapeutics transported across Calu-3 cell layers in the absence (dashed line) and presence (line) of 3OC12-HSL transported into the basolateral chamber over a period of five hours. Permeability experiments were initiated by applying 0.5 ml of the solutions (250 μg/ml Aflibercept/Bevacizumab/or Doxorubicin diluted in HBSS/HEPES) to the apical side of the cells (donor compartment of the Transwell) with or without 3OC12-HSL (200 μM). Drug permeability was determined by sampling the basolateral solution at regular time intervals. Data points are expressed as means±SEM, derived from three replicates in triplicate. p values of <0.05 were considered statistically significant. *, ** and *** denote p<0.05, p<0.01 and p<0.001, respectively.
Calu-3 cells obtained from American Type Culture Collection, USA were cultured using Dulbecco's Modified Eagle Medium (DMEM) supplemented with penicillin (100 U/mL), streptomycin (0.1 mg/mL), amphotericin (0.25 μg/mL), non-essential amino acids (NEM, 1%) and Fetal Bovine Serum (FBS, 10% v/v, Sigma-Aldrich, UK). The human-derived RPE cell line ARPE-19 was obtained from American Type Culture Collection. […]
Three polarised epithelial in-vitro tissue models, including lung epithelium (Calu-3), retinal pigment epithelium (ARPE-19) and intestinal epithelial (Caco-2) were used to study the efficiency of 200 μM 3OC12-HSL as a paracellular permeability enhancer for three different drugs: bevacizumab, aflibercept and doxorubicin (applied concentrations 250 μg/mL). The amount of drugs transported was determined via the conversion of fluorescence intensity to amount (μg or ng), using calibration curves constructed via serial standard dilutions. […]
Permeability experiments were initiated by applying 0.5 mL of the test solutions to the apical side of the cells (donor compartment of the Transwell®). […] Drug permeability was determined by sampling the basolateral solution at regular time intervals. […]

Calu-3 cells = assay: MTS assay of metabolic activity / cell viability; conditions: 5 nM to 200 μM, 6 hours
Description: To assess 3OC12-HSL and C7 PQS molecules cytotoxicity on cell viability of Calu-3 cell layers and to monitor short-term cytotoxicity during experiments, Calu-3 cells were treated with 3OC12-HSL and C7 PQS, at concentrations 5 nM, 1 μM, 50 μM, 100 μM and 200 μM, for 6 hours. At the end of the treatment, cell viability (through measuring metabolic activity) of cultures was determined by chromogenic MTS assay.

all three cell lines = assay: MTS metabolic activity in all three cell lines; conditions: 200 μM
Description: The viability of Calu-3 cells was determined by a chromogenic MTS method based on the measuring of mitochondrial respiration, assessed by the reduction of 3-(4,5-dimethylthiazol-2-yl)-5-(3-carboxymethoxyphenyl)-2-(4-sulfophenyl)-2H-tetrazolium to formazan. Calu-3 cells were cultured in a 96-well plate (CellTiter 96® Aqueous, Promega) at a density of 10^4 cells per well and incubated at 37° C., 5% CO2 for 24 hours. After 24 hours, the medium was replaced with 100 μl of test compounds dissolved in HBSS and then cells were incubated for 6 hours. HBSS and Triton X-100 (0.1% v/v in HBSS) were used as the negative and positive controls respectively. Bathing solutions were then aspirated and cells washed with PBS. Then culture medium (100 μl at 37° C.) plus MTS reagent (20 μl) were added into each well and cells were incubated for 2 hours. Absorbance at 492 was measured using a Dynex absorbance microplate reader (Dynex Technologies, USA) and converted into a percentage metabolic rate.
No significant reduction in cell metabolic activity was observed. Cell viability of >75% was retained in all cases.

Calu-3 = assay: Further in vitro Transwell studies: enhancing translocation of 4 kDa FITC-dextran
Description: Exemplary molecules (a)-(1) investigated in coarse dose-response by FD4 delivery in Transwell culture (Calu-3). Each molecule was screened at 5 nM, 1 μM, 200 μM levels.
Each compound was screened at 200 μM level.
Each molecule was screened at 5 nM, 1 μM, 200 μM levels.

MMP = assay: Fluorogenic MMP activity assay
Description: FIG. 5: High-throughput MMP assay (MMP Activity Assay Kit (Fluorometric-Red), Abcam #ab112147) showing the normalised accumulation slope of FRET-based signal (Ex540: Em590 nm) read at 5 minute intervals for one hour in adherent Calu-3 cells cultured in glass-bottomed 96-well plates using a SpectraMax i3x/Biomek FXPP high-throughput platform. Each experiment was conducted in triplicate (error bars). Signal accumulation over time in each well was linearly fitted and the gradient of each fit was scaled against the gradient of the relevant positive control wells, to which active MMP was added directly (mixed isoforms, […]), to obtain the normalised accumulation slope.
To investigate the involvement of MMP in the disruption of tight junctions observed in the presence of 200 μM 3OC12-HSL and C7 PQS, a fluorogenic MMP activity assay was performed, using the Amplite™ Universal Fluorimetric MMP Activity Assay Kit. This kit is designed to check the general activity of a MMP enzyme.
Following treatment with 3OC12-HSL and C7 PQS respectively, the conditioned media were collected every hour from apical chamber and MMP activity was determined by using Amplite™ Universal Fluorimetric MMP Activity Assay Kit Green Fluorescence according to the manufacturer's instructions.
A fluorogenic MMP activity assay was carried out in the same manner on further agents.

CCCCCCCCCC(=O)CC(=O)N[C@H]1CCOC1=O [Agent 3OC12-HSL, N-(3-oxododecanoyl) homoserine lactone]
enhancement of aflibercept transport by 3OC12-HSL (Calu-3 cell layers; aflibercept 250 μg/ml): 18 fold
enhancement of bevacizumab transport by 3OC12-HSL (Calu-3 cell layers; bevacizumab 250 μg/ml): 10 fold
enhancement of doxorubicin transport by 3OC12-HSL (Calu-3 cell layers; doxorubicin 250 μg/ml, after 5 hours): 17 fold
cytotoxic effect on cell viability within epithelial layers (Calu-3 cells): do not have an adverse cytotoxic effect
metabolic activity compared to the negative control (all three cell lines): did not change the metabolic activity
Effective in enhancing translocation (Calu-3): Yes
MMP activation in apical samples taken at one-hour intervals (MMP; 200 μM, p<0.01, no fluorescence in control samples): significant MMP activation
period over which MMP activation increased before starting to reduce (MMP; samples taken hourly from apical chamber): 4 h
